Experiments:
human sGC = target: T1, human sGC (Homo sapiens, UniProt Q02153); experiment: cGMP measurement, catalytic activity of human sGC in transfected HEK293T lysate; assay type: biochemical; details: stimulator 5 μM
T1 construct: Hs SGC-β1 (β1 1-619-His6); expressed in transfected cells; host or cells: HEK293T
T1 sequence (Q02153 1-619): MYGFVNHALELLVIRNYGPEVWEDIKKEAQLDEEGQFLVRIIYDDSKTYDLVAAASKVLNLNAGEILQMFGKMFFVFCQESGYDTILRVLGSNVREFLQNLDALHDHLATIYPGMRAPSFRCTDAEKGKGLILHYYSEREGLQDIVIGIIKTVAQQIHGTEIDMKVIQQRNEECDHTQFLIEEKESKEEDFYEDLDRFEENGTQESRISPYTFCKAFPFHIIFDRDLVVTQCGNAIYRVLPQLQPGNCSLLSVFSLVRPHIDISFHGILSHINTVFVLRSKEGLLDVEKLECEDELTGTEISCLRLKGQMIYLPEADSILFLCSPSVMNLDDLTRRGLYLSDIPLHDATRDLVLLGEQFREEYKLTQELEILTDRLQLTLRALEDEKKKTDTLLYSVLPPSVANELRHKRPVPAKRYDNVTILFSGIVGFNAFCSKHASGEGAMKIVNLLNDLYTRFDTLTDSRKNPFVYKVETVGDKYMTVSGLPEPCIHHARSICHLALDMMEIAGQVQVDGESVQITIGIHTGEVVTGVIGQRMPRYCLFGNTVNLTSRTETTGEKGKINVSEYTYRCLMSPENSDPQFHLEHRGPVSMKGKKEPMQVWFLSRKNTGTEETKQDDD
T1 sequence (Q02108 1-690 partner): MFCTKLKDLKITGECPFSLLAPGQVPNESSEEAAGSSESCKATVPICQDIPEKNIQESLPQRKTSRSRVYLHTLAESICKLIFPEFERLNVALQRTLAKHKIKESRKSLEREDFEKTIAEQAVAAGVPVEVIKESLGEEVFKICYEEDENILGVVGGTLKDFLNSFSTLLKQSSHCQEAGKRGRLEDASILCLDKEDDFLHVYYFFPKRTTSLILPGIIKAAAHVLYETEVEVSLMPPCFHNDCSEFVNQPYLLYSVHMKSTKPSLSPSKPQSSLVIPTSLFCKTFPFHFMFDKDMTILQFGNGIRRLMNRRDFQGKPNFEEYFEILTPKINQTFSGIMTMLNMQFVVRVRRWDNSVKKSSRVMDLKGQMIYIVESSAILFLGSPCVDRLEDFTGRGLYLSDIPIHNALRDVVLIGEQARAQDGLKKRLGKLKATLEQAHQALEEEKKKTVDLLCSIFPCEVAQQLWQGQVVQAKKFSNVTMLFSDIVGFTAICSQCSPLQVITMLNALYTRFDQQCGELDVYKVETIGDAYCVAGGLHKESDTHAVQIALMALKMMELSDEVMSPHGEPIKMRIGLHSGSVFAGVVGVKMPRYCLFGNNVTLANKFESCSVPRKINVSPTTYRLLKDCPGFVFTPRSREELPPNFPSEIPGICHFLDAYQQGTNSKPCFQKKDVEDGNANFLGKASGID

Ms sGC-NT23 [1] = experiment: Determination of CO dissociation constants, Ms sGC-NT23; assay type: binding, Manduca sexta; details: stimulator 5 μM, versus no stimulator
Ms sGC-NT23 [2] = experiment: Photoaffinity labeling with IWP-854, western blot, Ms sGC-NT23; assay type: binding, Manduca sexta
full-length Hs sGC = target: T2, full-length Hs sGC (Homo sapiens, UniProt Q02153); experiment: Photoaffinity labeling with IWP-854, western blot, full-length Hs sGC; assay type: binding; details: IWP-854 1 μM; not competed away with excess stimulator
T2 construct: Full-length human sGC was purchased from Enzo Life Sciences, Inc; purchased Enzo Life Sciences, Inc
T2 sequence (Q02153 1-619): T1 sequence (Q02153 1-619)
T2 sequence (Q02108 1-690 partner): T1 sequence (Q02108 1-690 partner)

Ms sGC-β1 = experiment: Photoaffinity labeling with IWP-854, western blot, Ms sGC-β1; assay type: binding, Manduca sexta
[3] = test system: bacterial H-NOX proteins (Cb SONO, Ns H-NOX, So H-NOX, Sw H-NOX); assay type: binding
[4] = background statement; cited from earlier work
[5] = test system: bacterial H-NOX proteins (Cb SONO, Ns H-NOX, So H-NOX, Sw H-NOX); assay type: binding; remark: listed apart in the source
Compound solubility = assay type: physicochemical

Row | Compound | increase of sGC activity over basal levels (human sGC; absence of added NO) [fold] | stimulation of recombinant human sGC, compared with BAY 41-2272 (human sGC; basal and NO stimulated) | increase of sGC activity over basal (human sGC; upon addition of NO (DEA/NO 100 μM)) [fold] | enhancement of CO affinity (Ms sGC-NT23 [1]) [fold] | subunit cross-linked by IWP-854 (Ms sGC-NT23 [2]; IWP-854 1 μM, 15 min UV, anti-biotin western blot) | labeling of the α1 subunit (full-length Hs sGC) | labeling of the isolated β1 subunit (Ms sGC-β1; β1 residues 1-380) | amount of IWP-854 required for photoaffinity labeling relative to sGC constructs [3] [fold] | labeling of bacterial H-NOX proteins [3] | solubility compared with traditional stimulators [4] | enhancement of CO binding [5] | competition of IWP-854 cross-linking (Ms sGC-NT23 [2]; BAY 41-2272 1-25 μM against IWP-854 1 μM) | competition of IWP-854 labeling (Ms sGC-β1; BAY 41-2272 against IWP-854) | competition of IWP-854 labeling [3] | compound solubility (Compound solubility)
1 | CC1(CCCN(CCOCCOCCOCCOCCC(=O)NCCOCCOCCOCCOCCOCCOCCOCCOCCOCCOCCOC(C)(C)CCNC(=O)CCCCC2SC[C@@H]3NC(=O)N[C@H]23)c2nc(-c3cc(-c4ccon4)n(Cc4ccccc4F)n3)ncc2F)N=N1 (stereo partly shown) [IWP-854] | 12 | stimulate to a similar extent as BAY 41-2272 | 84 | 34 | cross-links exclusively to the β1 subunit | Faint labeling was observed on the α1 subunit | labeled the isolated β1 subunit | 10 | labeled all four bacterial H-NOX proteins | – | – | – | – | – | –
2 | O=c1[nH]c(-c2cc(-c3ccon3)n(Cc3ccccc3F)n2)ncc1F [IWP-051] | – | – | – | – | – | – | – | – | – | improved solubility over traditional stimulators | – | – | – | – | –
3 | Nc1nc(-c2nn(Cc3ccccc3F)c3ncccc23)ncc1C1CC1 [BAY 41-2272, reference compound] | – | – | – | 14 | – | – | – | – | – | – | did not enhance CO binding | attenuated IWP-854 cross-linking to Ms sGC-NT23 in a concentration-dependent manner | failed to diminish IWP-854 labeling | reduced but not eliminated | poor compound solubility

From patent US20190234956A1 (priority 2016, published 2019)
